Description: Silver ion solubility, as referred to herein, is a value derived from a solubility product (Ksp) in water at 25 degrees centigrade, a well known parameter that is reported in numerous sources.

| SMILES | Silver Ion Solubility [Ag+] |
| --- | --- |
| [Br][Ag] [Silver bromide] | Silver bromide 1 5.3 × 10−^13 7.3 × 10″^7 mol/L |
| [Cl][Ag] [Silver chloride] | 1.3 × 10″^5 mol/L |

Reference: US20250195342A1, “DRY COMPOSITIONS AND METHODS FOR FORMING STABLE LIQUID CLEANSING FORMULATIONS” (Conopco, Inc., d/b/a UNILEVER, priority 2022, published 2025)
